{"source": "the supplement of paper PMC10307832", "assay_in_all_cases": "relative viability (nuclei count vs DMSO), 5 days (fraction); higher = more cells survive", "key": {"A-427": {"test_system": "A-427", "method_in_brief": "(§1)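 Relative viability divides the nuclei count in treated wells by that in vehicle wells. Lung cancer cell lines were seeded in 1536-well plates, dosed by pin tool the next day, and fixed and stained after 5 days in one step with final 0.05% Triton X-100, 1% formaldehyde and 1 ug/ml Hoechst. Dosing was a single drug or a fixed anchor-drug dose plus five library-drug doses (not always all listed) in √10 steps, and values are medians of duplicate plates imaged at 4×.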"}, "ABC-1": {"test_system": "ABC-1", "method_in_brief": "as §1"}, "CAL-12T": {"test_system": "CAL-12T", "method_in_brief": "as §1"}, "H3255": {"test_system": "H3255", "method_in_brief": "as §1"}, "LC-2-ad": {"test_system": "LC-2-ad", "method_in_brief": "as §1"}, "LCLC-97TM1": {"test_system": "LCLC-97TM1", "method_in_brief": "as §1"}, "LK-2": {"test_system": "LK-2", "method_in_brief": "as §1"}, "NCI-H1355": {"test_system": "NCI-H1355", "method_in_brief": "as §1"}, "NCI-H1395": {"test_system": "NCI-H1395", "method_in_brief": "as §1"}, "NCI-H1563": {"test_system": "NCI-H1563", "method_in_brief": "as §1"}, "NCI-H1651": {"test_system": "NCI-H1651", "method_in_brief": "as §1"}, "NCI-H1666": {"test_system": "NCI-H1666", "method_in_brief": "as §1"}, "NCI-H1792": {"test_system": "NCI-H1792", "method_in_brief": "as §1"}}}
{"molecule": "CCCCCCCCCCCC1=C(O)C(=O)C=C(O)C1=O", "note": "[Embelin] + Cc1nc(NC(=O)N2CCC[C@H]2C(N)=O)sc1-c1ccnc(C(C)(C)C(F)(F)F)c1 [Alpelisib] (partner 2 µM)", "values": [{"measurement": "relative viability", "setting": "A-427; first compound 0.08 µM", "result": 1.1}, {"measurement": "relative viability", "setting": "A-427; first compound 0.8 µM", "result": 1.13}, {"measurement": "relative viability", "setting": "A-427; first compound 2.53 µM", "result": 1.12}, {"measurement": "relative viability", "setting": "A-427; first compound 8 µM", "result": 1.07}, {"measurement": "relative viability", "setting": "ABC-1; first compound 0.08 µM", "result": 1.24}, {"measurement": "relative viability", "setting": "ABC-1; first compound 0.8 µM", "result": 1.1}, {"measurement": "relative viability", "setting": "ABC-1; first compound 2.53 µM", "result": 0.996}, {"measurement": "relative viability", "setting": "ABC-1; first compound 8 µM", "result": 1.18}, {"measurement": "relative viability", "setting": "CAL-12T; first compound 0.08 µM", "result": 1.24}, {"measurement": "relative viability", "setting": "CAL-12T; first compound 0.8 µM", "result": 1.49}, {"measurement": "relative viability", "setting": "CAL-12T; first compound 2.53 µM", "result": 1.31}, {"measurement": "relative viability", "setting": "CAL-12T; first compound 8 µM", "result": 1.33}, {"measurement": "relative viability", "setting": "H3255; first compound 0.08 µM", "result": 0.935}, {"measurement": "relative viability", "setting": "H3255; first compound 0.8 µM", "result": 0.804}, {"measurement": "relative viability", "setting": "H3255; first compound 2.53 µM", "result": 0.766}, {"measurement": "relative viability", "setting": "H3255; first compound 8 µM", "result": 0.653}, {"measurement": "relative viability", "setting": "LC-2-ad; first compound 0.08 µM", "result": 0.891}, {"measurement": "relative viability", "setting": "LC-2-ad; first compound 0.8 µM", "result": 0.913}, {"measurement": "relative viability", "setting": "LC-2-ad; first compound 2.53 µM", "result": 0.716}, {"measurement": "relative viability", "setting": "LC-2-ad; first compound 8 µM", "result": 0.892}, {"measurement": "relative viability", "setting": "LCLC-97TM1; first compound 0.8 µM", "result": 0.291}, {"measurement": "relative viability", "setting": "LCLC-97TM1; first compound 2.53 µM", "result": 0.283}, {"measurement": "relative viability", "setting": "LCLC-97TM1; first compound 8 µM", "result": 0.223}, {"measurement": "relative viability", "setting": "LK-2; first compound 0.08 µM", "result": 1.09}, {"measurement": "relative viability", "setting": "LK-2; first compound 0.8 µM", "result": 1.5}, {"measurement": "relative viability", "setting": "LK-2; first compound 2.53 µM", "result": 1.09}, {"measurement": "relative viability", "setting": "LK-2; first compound 8 µM", "result": 0.99}, {"measurement": "relative viability", "setting": "NCI-H1355; first compound 0.08 µM", "result": 0.847}, {"measurement": "relative viability", "setting": "NCI-H1355; first compound 0.8 µM", "result": 0.897}, {"measurement": "relative viability", "setting": "NCI-H1355; first compound 2.53 µM", "result": 0.916}, {"measurement": "relative viability", "setting": "NCI-H1355; first compound 8 µM", "result": 0.771}, {"measurement": "relative viability", "setting": "NCI-H1395; first compound 0.08 µM", "result": 1.06}, {"measurement": "relative viability", "setting": "NCI-H1395; first compound 0.8 µM", "result": 1.24}, {"measurement": "relative viability", "setting": "NCI-H1395; first compound 2.53 µM", "result": 0.982}, {"measurement": "relative viability", "setting": "NCI-H1395; first compound 8 µM", "result": 1.1}, {"measurement": "relative viability", "setting": "NCI-H1563; first compound 0.08 µM", "result": 0.845}, {"measurement": "relative viability", "setting": "NCI-H1563; first compound 0.8 µM", "result": 0.978}, {"measurement": "relative viability", "setting": "NCI-H1563; first compound 2.53 µM", "result": 0.856}, {"measurement": "relative viability", "setting": "NCI-H1563; first compound 8 µM", "result": 0.913}, {"measurement": "relative viability", "setting": "NCI-H1651; first compound 0.08 µM", "result": 0.939}, {"measurement": "relative viability", "setting": "NCI-H1651; first compound 0.8 µM", "result": 0.971}, {"measurement": "relative viability", "setting": "NCI-H1651; first compound 2.53 µM", "result": 0.945}, {"measurement": "relative viability", "setting": "NCI-H1651; first compound 8 µM", "result": 0.873}, {"measurement": "relative viability", "setting": "NCI-H1666; first compound 0.08 µM", "result": 1.01}, {"measurement": "relative viability", "setting": "NCI-H1666; first compound 0.8 µM", "result": 1.09}, {"measurement": "relative viability", "setting": "NCI-H1666; first compound 2.53 µM", "result": 1.05}, {"measurement": "relative viability", "setting": "NCI-H1666; first compound 8 µM", "result": 0.955}, {"measurement": "relative viability", "setting": "NCI-H1792; first compound 0.08 µM", "result": 0.718}, {"measurement": "relative viability", "setting": "NCI-H1792; first compound 0.8 µM", "result": 0.764}]}
